In patent publication US4169150A, “Benzodiazepine derivatives and pharmaceutical compositions containing said derivatives” (Teijin Limited, priority 1975, dated 1979):

Tests used:
mice [1] = assay: Anti-electroshock convulsant activity (maximal electroshock); assay type: in vivo, mouse (ddY-type male mice); details: Mus musculus, PO, electroshock 30 mA, 200 Hz 1 hour later, read-out: ED50 anti-convulsion, maximal electroshock
Description: (§1) In the following tests, the pharmacological actions of the compounds were tested by using six mice (ddY-type male mice) for each dosage level, and ED50 values were determined. In the determination of ED50 values, the dosages of the test compounds were increased or decreased by a common ratio of 3 as required, and 3 or 4 dosage levels were used. The calculation of the ED50 values was made on the basis of the Litchfield-Wilcoxon method [J. Pharmacol. Exp. Therap., 96, 99 (1949)].
(3) Anti-electroshock convulsant activity
The subjects were orally administered with the test compound. One hour later, electroshock (30 mA, 200 Hz, 1 msec) was applied for 0.2 second through both ears, and the presence or absence of tonic extensor convulsion was examined.

mice [2] = assay: Potentiation of thiopental hypnosis (sedation); assay type: in vivo, mouse (ddY-type male mice); details: Mus musculus, 1 h, PO, sodium thiopental 50 mg/kg i.p., sleeping time prolonged to two times
Description: as §1
(4) Potentiation of thiopental hypnosis
The subjects were orally administered with the test compound. One hour later, sodium thiopental in an amount of 50 mg/kg was administered intraperitoneally. The dosage which prolonged the sleeping time (the period of loss of righting reflex) to two times that in the case of a group administered only with sodium thiopental was determined.

mice [3] = assay: Motor incoordinating activity (rotating rod); assay type: in vivo, mouse (ddY-type male mice); details: Mus musculus, 0.05 h, PO, 5.5 rpm, within 3 minutes, read-out: ED50 motor incoordination, rotating rod
Description: as §1
(6) Motor incoordinating activity
Mice which could stay for more than 3 minutes on a rotating rod having a diameter of 3.0 cm and rotating at a speed of 5.5 rpm. The subjects were orally administered with the test compound, and then at intervals of 30 minutes, they were placed on the rotating rod. Examination was made as to whether they slipped down within 3 minutes.

mice [4] = assay: Muscle relaxant activity (inclined screen); assay type: in vivo, mouse (ddY-type male mice); details: Mus musculus, PO, plate inclined at 70°, 30 seconds, read-out: ED50 muscle relaxation, inclined screen
Description: as §1
(5) Muscle relaxant activity
Mice were placed on a wooden plate having a smooth surface and being inclined at an angle of 70°, and those which could stay on the initially placed positions for more than 30 seconds were selected. The selected subjects were orally administered with the test compound, and placed on the inclined plate. Examination was made as to whether the mice slipped down within 30 seconds.

mice [5] = assay: Taming activity (fighting mouse); assay type: in vivo, mouse (ddY-type male mice); details: PO, electroshock 100 V, 3 mA
Description: as §1
This was determined by a partially modified version of the method of Tedeschi et al. [J. Pharmacol. Exp. Therap., 125, 28 (1959)]. Two mice different in body weight by less than 1 gram were placed in a fighting device, and electroshock (100 V, 3 mA, 0.45 Hz, 0.5 sec) was applied for 3 minutes. […] Then, at intervals of 30 minutes, electroshock was applied under the above conditions, and the presence or absence of fighting reaction in the subjects was examined.

mice [6] = assay: Anti-pentylene tetrazole convulsion activity; assay type: in vivo, mouse (ddY-type male mice); details: Mus musculus, PO, pentylene tetrazole 125 mg/kg s.c. 1 hour later, read-out: ED50 anti-convulsion, pentetrazol shock
Description: as §1
(1) Anti-pentylene tetrazole convulsion activity
Each of test compounds suspended in a 5% gum arabic solution was orally administered to mice. One hour later, pentylene tetrazole in an amount of 125 mg/kg was administered subcutaneously. Then, over the course of 30 minutes, the presence or absence of convulsion in the subjects was examined.

mice [7] = assay: Acute toxicity; assay type: in vivo, mouse (male ddY-type mice); details: one week observation
Description: A test compound was suspended in a 5% solution of gum arabic, and the suspension was administered to a group of 2 to 4 male ddY-type mice in a dose of 1000, 2000, and 3000 mg/kg, respectively. The conditions of the subjects were observed over a period of one week after administration, and the acute toxicity was examined.

[8] = Pharmacological / central nervous system depressant actions, general statement; assay type: in vivo; details: anti-anxietic, sedative, hypnotic, muscle relaxant, anti-convulsant actions

| SMILES | ED50 (mice [1]) | ED50 (mice [2]) | ED50 (mice [3]) | ED50 (mice [4]) | ED50 (mice [5]) | ED50 (mice [6]) | Acute toxicity: death of the subjects (mice [7]; 3000 mg/kg) | Pharmacological actions in words [8] | Acute toxicity: death of the subjects (mice [7]; 1000 mg/kg) |
| --- | --- | --- | --- | --- | --- | --- | --- | --- | --- |
| CCc1cc2n(c1C)-c1ccc(Cl)cc1C(c1ccccc1Cl)=NC2 [Compound 6, 8-chloro-6-(2-chlorophenyl)-2-ethyl-1-methyl-4H-pyrrolo[1,2-a][1,4]benzodiazepine] | > 30 mg/kg | 0.8 mg/kg | 23.5 mg/kg | 14 mg/kg | 5.5 mg/kg | 3.4 mg/kg | – | – | – |
| Cc1cc(C)n2c1CN=C(c1ccccc1Cl)c1cc(Cl)ccc1-2 [Compound 9, 8-chloro-6-(2-chlorophenyl)-1,3-dimethyl-4H-pyrrolo[1,2-a][1,4]benzodiazepine] | 100 mg/kg | 0.34 mg/kg | 15.5 mg/kg | 8.2 mg/kg | 1.6 mg/kg | 1.8 mg/kg | did not cause any death | – | – |
| Cc1cc(C)n2c1CN=C(c1c(F)cccc1F)c1cc(Cl)ccc1-2 [Compound 11, 8-chloro-6-(2,6-difluorophenyl)-1,3-dimethyl-4H-pyrrolo[1,2-a][1,4]benzodiazepine] | 88 mg/kg | 0.7 mg/kg | 15.5 mg/kg | 10 mg/kg | 1.6 mg/kg | 2 mg/kg | did not cause any death | – | – |
| Cc1cc2n(c1C)-c1ccc(Cl)cc1C(c1ccccc1)=NC2 [Compound 5, 8-chloro-1,2-dimethyl-6-phenyl-4H-pyrrolo[1,2-a][1,4]benzodiazepine] | > 100 mg/kg | 21 mg/kg | > 100 mg/kg | > 100 mg/kg | ≥ 30 mg/kg | 13.5 mg/kg | – | – | – |
| Cc1cc(C)n2c1CN=C(c1ccccc1F)c1cc(Cl)ccc1-2 [Compound 10, 8-chloro-1,3-dimethyl-6-(2-fluorophenyl)-4H-pyrrolo[1,2-a][1,4]benzodiazepine] | > 100 mg/kg | 2.4 mg/kg | > 30 mg/kg | 21.5 mg/kg | 8.8 mg/kg | 5.5 mg/kg | – | – | – |
| CCc1cc2n(c1C)-c1ccc(Cl)cc1C(c1ccccc1F)=NC2 [Compound 7, 8-chloro-2-ethyl-6-(2-fluorophenyl)-1-methyl-4H-pyrrolo[1,2-a][1,4]benzodiazepine] | > 30 mg/kg | 2.2 mg/kg | > 100 mg/kg | 30 mg/kg | 5.5 mg/kg | 5.5 mg/kg | – | – | – |
| Cc1ccc2n1-c1ccc(Cl)cc1C(c1ccccc1Cl)=NC2 [Compound 1, 8-chloro-6-(2-chlorophenyl)-1-methyl-4H-pyrrolo[1,2-a][1,4]benzodiazepine] | > 100 mg/kg | 2.8 mg/kg | 100 mg/kg | > 100 mg/kg | 11 mg/kg | 20 mg/kg | – | – | – |
| Cc1ccc2n1-c1ccc(Cl)cc1C(c1ccccc1F)=NC2 [Compound 2, 8-chloro-6-(2-fluorophenyl)-1-methyl-4H-pyrrolo[1,2-a][1,4]benzodiazepine] | > 100 mg/kg | 6.9 mg/kg | > 100 mg/kg | > 100 mg/kg | 55 mg/kg | 36 mg/kg | – | – | – |
| Clc1ccc2c(c1)C(c1ccccc1)=NCc1cccn1-2 [Comparison (R5=Cl, R6=H, R7=H), 8-Chloro-6-phenyl-4H-pyrrolo[1,2-a][1,4]benzodiazepine, reference compound] | > 100 mg/kg | 44 mg/kg | > 100 mg/kg | > 100 mg/kg | > 100 mg/kg | 78 mg/kg | – | does not substantially show those pharmacological actions which are common to many other known benzodiazepines | – |
| c1ccc(C2=NCc3cccn3-c3ccccc32)cc1 [Comparison (R5=H, R6=H, R7=H), reference compound] | > 100 mg/kg | 55 mg/kg | > 100 mg/kg | > 100 mg/kg | 78 mg/kg | > 100 mg/kg | – | – | – |
| CCc1cc2n(c1C)-c1ccc(Cl)cc1C(c1c(F)cccc1F)=NC2 [Compound 8, 8-chloro-2-ethyl-6-(2,6-difluorophenyl)-1-methyl-4H-pyrrolo[1,2-a][1,4]benzodiazepine] | > 30 mg/kg | 1.9 mg/kg | > 100 mg/kg | 69 mg/kg | 12.5 mg/kg | 11.2 mg/kg | – | – | – |
| Clc1ccc2c(c1)C(c1ccccc1Cl)=NCc1cccn1-2 [Comparison (R5=Cl, R6=Cl, R7=H), reference compound] | > 100 mg/kg | 18 mg/kg | > 100 mg/kg | > 100 mg/kg | > 100 mg/kg | > 100 mg/kg | – | – | – |
| CN1C(=O)CN=C(c2ccccc2)c2cc(Cl)ccc21 [Diazepam, reference compound] | 8.8 mg/kg | 0.3 mg/kg | – | 1 mg/kg | 1.6 mg/kg | 0.7 mg/kg | – | – | caused half of the mice to die |
| Cc1cc2n(c1C)-c1ccc(Cl)cc1C(c1ccccc1F)=NC2 [Compound 3, 8-chloro-1,2-dimethyl-6-(2-fluorophenyl)-4H-pyrrolo[1,2-a][1,4]benzodiazepine] | > 100 mg/kg | 10 mg/kg | > 100 mg/kg | > 100 mg/kg | 17 mg/kg | 10 mg/kg | – | – | – |
| Cc1cc2n(c1C)-c1ccc(Cl)cc1C(c1ccccc1Cl)=NC2 [Compound 4, 8-chloro-6-(2-chlorophenyl)-1,2-dimethyl-4H-pyrrolo[1,2-a][1,4]benzodiazepine] | > 100 mg/kg | 2.6 mg/kg | 40 mg/kg | > 100 mg/kg | 4.8 mg/kg | 6.5 mg/kg | – | – | – |
